Data published in patent publication US12552753B2, “Methods and compositions for targeting Tregs using CCR8 inhibitors” (Nanjing Immunophage Biomedical Co., Ltd., priority 2020, dated 2026).

Each molecule was assayed against CCR8 (Homo sapiens, UniProt P51685) (assay: Tango assay (Tango-CCR8-Gal4-CHO-K1 cells, CCL1-stimulated, ONE-Glo luminescence)). Conditions: Tango Assay IC50, Inhibition of CCR8 Tango cell in vitro.
Chain of CCR8 (P51685 whole entry, the tested form may be a part): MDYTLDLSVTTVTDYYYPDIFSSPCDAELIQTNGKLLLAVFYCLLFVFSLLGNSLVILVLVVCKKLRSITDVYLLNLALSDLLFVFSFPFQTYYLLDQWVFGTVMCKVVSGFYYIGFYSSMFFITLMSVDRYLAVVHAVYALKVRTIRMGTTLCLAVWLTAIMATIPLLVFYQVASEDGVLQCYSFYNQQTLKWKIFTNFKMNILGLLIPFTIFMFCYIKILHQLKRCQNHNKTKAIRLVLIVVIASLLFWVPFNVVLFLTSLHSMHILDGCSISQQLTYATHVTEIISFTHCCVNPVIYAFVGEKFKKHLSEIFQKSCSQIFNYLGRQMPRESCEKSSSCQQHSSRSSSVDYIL
Experimental: The Tango cell line was used to monitor antagonists-mediated receptor inactivation.
Tango cells (Tango-CCR8-Gal4-CHO-K1 cells constructed by Genomeditech) were passaged in complete medium (F12K, 10% FBS, 1% penicillin-streptomycin, 4 μg/ml puromycin, 4 μg/ml blasticidin and 100 μg/ml hygromycin) in incubator (37° C., 5% CO2).
Twenty-four hours before the seed, cells were cultured in 10 or 15 cm dish at a density of 30% confluence in culture medium (F12K, 10% FBS, 1% penicillin-streptomycin).
Cells were suspended in starving medium (F12K, 1% FBS, 1% penicillin-streptomycin) before being seeded into black/clear 96 wells (1×10^4 cells/70 μl/well) and incubated for 6 hours (37° C., 5% CO2). Different concentration of compound, dissolved in DMSO, was into the 96-well plates, with 50 μl in each well, and incubation continued for 1 hour at 37° C.
After the incubation, the medium was removed and the 96-well plate was put in −80° C. freezer for an hour or longer. The plate and the ONE-Glo reagent (Promega, Catalog Number: E6110) which was frozen in −80° C., were taken out and rewarmed to room temperature. The ONE-Glo working reagent was prepared by mixing ONE-Glo reagent with F12K (no FBS) (1:2), and 40 μl ONE-Glo working reagent was added into each well. After incubating for 10 minutes at room temperature, the plate was read using microplate luminescence reader at 560 nm.
The microplate reader records luminescence in relative luminescence units (RLU).

Structure (SMILES) | IC50
Cc1ccccc1C(=O)Nc1ccc(S(=O)(=O)NC(C)C2CCCN(C(=O)CN)C2)c2ccccc12 (single isomer, unassigned) [Compound 156D, N-(4-(N-(1-(1-(2-aminoacetyl)piperidin-3-yl)ethyl)sulfamoyl)naph-thalen-1-yl)-2-methylbenzamide] | > 10000 nM
Cc1ccccc1C(=O)Nc1ccc(S(=O)(=O)NC(C)C2CCCN(C(=O)[C@H](C)NC(=O)OC(C)(C)C)C2)c2ccccc12 (single isomer, unassigned) [Compound 157A] | > 10000 nM
Cc1ccccc1C(=O)Nc1ccc(S(=O)(=O)NC(C)C2CCCN(C(=O)[C@H](C)N)C2)c2ccccc12 (single isomer, unassigned) [Compound 158A] | 1500 nM
Cc1ccccc1C(=O)Nc1ccc(S(=O)(=O)NC(C)C2CCCN(C(=O)[C@H](C)N)C2)c2ccccc12 (single isomer, unassigned) [Compound 158B] | 685 nM
Cc1ccccc1C(=O)Nc1ccc(S(=O)(=O)NC(C)C2CCCN(C(=O)[C@H](C)N)C2)c2ccccc12 (single isomer, unassigned) [Compound 158C] | 458 nM
Cc1ccccc1C(=O)Nc1ccc(S(=O)(=O)NC(C)C2CCCN(C(=O)[C@H](C)N)C2)c2ccccc12 (single isomer, unassigned) [Compound 158D] | 1020 nM
CCCN1CCN(c2cccc(NS(=O)(=O)c3ccc(NC(=O)c4ccccc4C)c4ccccc34)c2C)CC1 [Compound 2, 2-methyl-N-(4-(N-(2-methyl-3-(4-propylpiperazin-1-yl)phenyl)sulfamoyl)naphthalen-1-yl)benzamide] | > 10000 nM
CCCN1CCN(c2ccc(OC)c(NS(=O)(=O)c3ccc(NC(=O)c4ccccc4C)c4ccccc34)c2)CC1 [Compound 3, N-(4-(N-(2-methoxy-5-(4-propylpiperazin-1-yl)phenyl)sulfamoyl)naphthalen-1-yl)-2-methylbenzamide] | > 10000 nM
CCCN1CCCN(c2cc(NS(=O)(=O)c3ccc(NC(=O)c4ccccc4C)c4ccccc34)ccc2OC)CC1 [Compound 4, N-(4-(N-(4-methoxy-3-(4-propyl-1,4-diazepan-1-yl)phenyl)sulfamoyl)naphthalen-1-yl)-2-methylbenzamide] | 1170 nM
CCOC(=O)N1CCCC(C(=O)NS(=O)(=O)c2ccc(NC(=O)c3ccccc3C)c3ccccc23)C1 (centres unmarked) [Compound 5, ethyl 3-(((4-(2-methylbenzamido)naph-thalen-1-yl)sulfonyl)carbamoyl) piperidine-1-carboxylate] | > 10000 nM
CCCC(=O)N1CCCC1C(=O)NS(=O)(=O)c1ccc(NC(=O)c2ccccc2C)c2ccccc12 (centres unmarked) [Compound 7, 1-butyryl-N-((4-(2-methylbenzamido)naph-thalen-1-yl)sulfonyl)pyrrolidine-2-carboxamide] | > 10000 nM
CCCC(=O)N1CCCC(C(=O)NS(=O)(=O)c2ccc(NC(=O)c3ccccc3C)c3ccccc23)C1 (centres unmarked) [Compound 9, 1-butyryl-N-((4-(2-methylbenzamido)naph-thalen-1-yl)sulfonyl)piperidine-3-carboxamide] | > 10000 nM
Cc1ccccc1C(=O)Nc1ccc(S(=O)(=O)NC(=O)c2cccc(N(C)C)c2)c2ccccc12 [Compound 10, N-(4-(N-(3-(dimethylamino)benzoyl)sulfamoyl)naphthalen-1-yl)-2-methylbenzamide] | > 10000 nM
CCCN1CCN(c2cccc(C(=O)NS(=O)(=O)c3ccc(NC(=O)c4ccccc4C)c4ccccc34)c2)CC1 [Compound 11, 2-methyl-N-(4-(N-(3-(4-propylpiperazin-1-yl)benzoyl)sulfamoyl)naphthalen-1-yl)benzamide] | > 10000 nM
Cc1ccccc1C(=O)Nc1ccc(S(=O)(=O)NC(=O)c2ccccc2N2CCCCC2)c2ccccc12 [Compound 12, 2-methyl-N-(4-(N-(2-(piperidin-1-yl)benzoyl)sulfamoyl)naphthalen-1-yl)benzamide] | > 10000 nM
Cc1ccccc1C(=O)Nc1ccc(S(=O)(=O)NC(=O)c2ccccc2N2CCOCC2)c2ccccc12 [Compound 13, 2-methyl-N-(4-(N-(2-morpholinobenzoyl)sul-famoyl)naphthalen-1-yl)benzamide] | > 10000 nM

Structure (SMILES) | IC50
CCCC(=O)N1CCCC(CNS(=O)(=O)c2ccc(NC(=O)c3ccccc3C)c3ccccc23)C1 (centres unmarked) [Compound 14, N-(4-(N-((1-butyrylpiperidine-3-yl)methyl)sulfamoyl)naphthalen-1-yl)-2-methylbenzamide] | > 10000 nM
CCCC(=O)N1CCC(CNS(=O)(=O)c2ccc(NC(=O)c3ccccc3C)c3ccccc23)C1 (centres unmarked) [Compound 15, N-(4-(N-((1-butyrylpyrrolidin-3-yl)methyl)sulfamoyl)naphthalen-1-yl)-2-methylbenzamide] | > 10000 nM
Cc1ccccc1C(=O)Nc1ccc(S(=O)(=O)Nc2ccc3c(c2)N(CCN(C)C)C(=O)CO3)c2ccccc12 [Compound 20, N-(4-(N-(4-(2-(dimethylamino)ethyl)-3-oxo-3,4-dihydro-2H-benzo[b][1,4]oxazin-6-yl)sulfamoyl)naphthalen-1-yl)-2-methylbenzamide] | > 10000 nM
CN(C)CC(=O)N1CCOc2ccc(NS(=O)(=O)c3ccc4ccccc4c3)cc21 [Compound 22, N-(4-(2-(dimethylamino)acetyl)-3,4-dihydro-2H-benzo[b][1,4]oxazin-6-yl)naphthalene-2-sulfonamide] | > 10000 nM
Cc1ccccc1C(=O)Nc1ccc(S(=O)(=O)Nc2ccc3c(c2)N(CCN(C)C)CCO3)c2ccccc12 [Compound 23, N-(4-(N-(4-(2-(dimethylamino)ethyl)-3,4-dihydro-2H-benzo[b][1,4]oxazin-6-yl)sulfamoyl)naphthalen-1-yl)-2-methylbenzamide] | > 10000 nM
Cc1ccccc1C(=O)Nc1ccc(S(=O)(=O)NC(C)C2CCCN(C(=O)OC(C)(C)C)C2)c2ccccc12 (centres unmarked) [Compound 24, tert-butyl 3-(1-(4-(2-methylbenzamido)naph-thalene-1-sulfonamido)ethyl)piper-idine-1-carboxylate] | 930 nM
Cc1ccccc1C(=O)Nc1ccc(S(=O)(=O)NCc2cccc(N(C)C)c2)c2ccccc12 [Compound 25, N-(4-(N-(3-(dimethylamino)benzyl)sulfamoyl)naphthalen-1-yl)-2-methylbenzamide] | 1040 nM
Cc1ccccc1C(=O)Nc1ccc(S(=O)(=O)NC(C)c2cccc(N(C)C)c2)c2ccccc12 (centres unmarked) [Compound 26, N-(4-(N-(1-(3-(dimethylamino)phenyl)ethyl)sulfamoyl)naph-thalen-1-yl)-2-methylbenzamide] | 83 nM
Cc1ccccc1C(=O)Nc1ccc(S(=O)(=O)NC2CCCc3ccccc32)c2ccccc12 (centres unmarked) [Compound 28, 2-methyl-N-(4-(N-(1,2,3,4-tetrahydronaphthalen-1-yl)sulfamoyl)naphtha-len-1-yl)benzamide] | 19 nM
Cc1ccccc1C(=O)Nc1ccc(S(=O)(=O)NC2CCOc3ccccc32)c2ccccc12 (centres unmarked) [Compound 29, N-(4-(N-(chroman-4-yl)sulfamoyl)naphthalen-1-yl)-2-methylbenzamide] | 26 nM
Cc1ccccc1C(=O)Nc1ccc(S(=O)(=O)NC2CCNc3ccccc32)c2ccccc12 (centres unmarked) [Compound 30, 2-methyl-N-(4-(N-(1,2,3,4-tetrahydroquinolin-4-yl)sulfamoyl)naphthalen-1-yl)benzamide] | 73 nM
CC(=O)N1CCC(NS(=O)(=O)c2ccc(NC(=O)c3ccccc3C)c3ccccc23)c2ccccc21 (centres unmarked) [Compound 31, N-(4-(N-(1-acetyl-1,2,3,4-tetrahydroquinolin-4-yl)sulfamoyl)naphthalen-1-yl)-2-methylbenzamide] | 1080 nM
Cc1ccccc1C(=O)Nc1ccc(S(=O)(=O)NC2CCN(C)c3ccccc32)c2ccccc12 (centres unmarked) [Compound 32, 2-methyl-N-(4-(N-(1-methyl-1,2,3,4-tetrahydroquinolin-4-yl)sulfamoyl)naphthalen-1-yl)benzamide] | 89 nM
Cc1ccccc1C(=O)Nc1ccc(S(=O)(=O)Nc2ccc3c(c2)N(CCN(C)C)CC3)c2ccccc12 [Compound 33, N-(4-(N-(1-(2-(dimethylamino)ethyl)indolin-6-yl)sulfamoyl)naphthalen-1-yl)-2-methylbenzamide] | > 10000 nM
Cc1ccccc1C(=O)Nc1ccc(S(=O)(=O)Nc2ccc3c(c2)CN(CCCN(C)C)C3)c2ccccc12 [Compound 35, N-(4-(N-(2-(3-(dimethylamino)propyl)isoindolin-5-yl)sulfamoyl)naphthalen-1-yl)-2-methylbenzamide] | > 10000 nM

Same assay, conditions: read-out: Tango Assay IC50, Inhibition of CCR8 Tango cell in vitro

Structure (SMILES) | IC50
Cc1ccccc1C(=O)Nc1ccc(S(=O)(=O)NC(C)C2CCCN(C(=O)[C@H](C)NC(=O)OC(C)(C)C)C2)c2ccccc12 (single isomer, unassigned) [Compound 157B] | > 10000 nM
Cc1ccccc1C(=O)Nc1ccc(S(=O)(=O)NC(C)C2CCCN(C(=O)[C@H](C)NC(=O)OC(C)(C)C)C2)c2ccccc12 (single isomer, unassigned) [Compound 157C] | > 10000 nM
Cc1ccccc1C(=O)Nc1ccc(S(=O)(=O)NC(C)C2CCCN(C(=O)[C@H](C)NC(=O)OC(C)(C)C)C2)c2ccccc12 (single isomer, unassigned) [Compound 157D] | > 10000 nM
COC1CCC([C@@H](C)NS(=O)(=O)c2ccc(NC(=O)c3ccccc3C)c(C)c2)CC1 (single isomer, unassigned) [Compound 293A, N-(4-(N-(1-(4-methoxycyclohexyl)ethyl)sulfamoyl)-2-methylphenyl)-2-methylbenzamide] | 24 nM
COC1CCC([C@@H](C)NS(=O)(=O)c2ccc(NC(=O)c3ccccc3C)c(C)c2)CC1 (single isomer, unassigned) [Compound 293B, N-(4-(N-(1-(4-methoxycyclohexyl)ethyl)sulfamoyl)-2-methylphenyl)-2-methylbenzamide] | 46 nM
CCCC(=O)N1CCCC(C(C)NS(=O)(=O)c2ccc(NC(=O)c3ccccc3C)c3ccccc23)C1 (centres unmarked) [Compound 16, N-(4-(N-(1-(1-butyrylpiperidin-3-yl)ethyl)sulfamoyl)naph-thalen-1-yl)-2-methylbenzamide] | 500 nM
Cc1ccccc1C(=O)Nc1ccc(S(=O)(=O)NC(C)C2CCCNC2)c2ccccc12 (centres unmarked) [Compound 17, 2-methyl-N-(4-(N-(1-(piperidin-3-yl)ethyl)sulfamoyl)naph-thalen-1-yl)benzamide] | 112 nM
